Measurements from patent US7981919B2, “Tricyclic heteroaryl piperazines, pyrrolidines and azetidines as serotonin receptor modulators” (Athersys, Inc., priority 2004, dated 2011).
Like-named read-outs stand apart in the source and are kept apart here.

Target: T1, human 5HT2c receptor (VNV Isoform) (Homo sapiens, UniProt P28335, I156V/I160V, form not given)
T1 sequence (P28335 1-458 I156V/N158S/I160V): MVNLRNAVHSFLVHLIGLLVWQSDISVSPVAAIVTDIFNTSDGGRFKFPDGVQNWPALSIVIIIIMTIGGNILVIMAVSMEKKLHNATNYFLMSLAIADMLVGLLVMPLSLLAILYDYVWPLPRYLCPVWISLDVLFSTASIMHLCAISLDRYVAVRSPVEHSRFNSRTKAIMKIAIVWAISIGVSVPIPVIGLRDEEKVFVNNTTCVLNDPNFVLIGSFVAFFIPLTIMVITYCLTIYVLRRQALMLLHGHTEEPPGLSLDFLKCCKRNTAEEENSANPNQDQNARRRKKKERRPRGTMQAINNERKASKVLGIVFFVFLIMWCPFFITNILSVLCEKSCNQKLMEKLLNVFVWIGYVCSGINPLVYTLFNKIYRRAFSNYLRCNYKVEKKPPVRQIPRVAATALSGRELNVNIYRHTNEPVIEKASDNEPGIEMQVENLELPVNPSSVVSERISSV
Assay: Calcium mobilization (FLIPR) 5HT2c receptor agonist assay in HEK 293 EBNA cells
Assay type: cell-based
Method: The following procedure was utilized to evaluate representative compounds of the present invention as 5HT2c receptor agonists.
5HT was utilized as a positive control. Ligand-induced calcium release and consequent fluorescence was measured on a Fluorometric Imaging Plate Reader (FLIPR, Molecular Device, CA).
All data were analyzed by nonlinear least square curve fitting using Prism 4.0 software. Agonist stimulation of calcium-induced fluorescence in FLIPR was fitted to sigmoidal dose response using equation Y=Bottom+(Top−Bottom)/(1+10 ? ((Log EC50−X))), where X is the logarithm of concentration of compounds and Y is the fluorescent response.

[1] = HEK 293 EBNA cells expressing human 5HT2c receptor, ligand-induced calcium release, read-out: 5-HT2c EC50 (hVSV)

Row | SMILES | EC50 [1] | EC50 (read-out: 5-HT2c EC50 (hVSV), HEK 293 EBNA cells expressing human 5HT2c receptor, ligand-induced calcium release)
1 | Cc1c(Cl)sc2c1C(C)C1CNCC21 (single isomer, unassigned) [26, Enantiomer 2] | < 0.1 µM | 
2 | Cc1sc2c(c1Br)C(C)C1CNCC21 (single isomer, unassigned) [27, Enantiomer 1] | < 1 µM | 
3 | Cc1sc2c(c1Br)C(C)C1CNCC21 (single isomer, unassigned) [27, Enantiomer 2] | < 0.1 µM | 
4 | Brc1cc2c(s1)CC1CNCCC21 (single isomer, unassigned) [28, Enantiomer 1] | < 10 µM | 
5 | Brc1cc2c(s1)CC1CCNCC21 (single isomer, unassigned) [29, Enantiomer 2] | < 10 µM | 
6 | Brc1cc2c(s1)C1CNCCC1C2 (single isomer, unassigned) [30, Enantiomer 2] |  | > 10 µM
7 | Cc1sc2c(c1Br)C1CNCCC1C2 (single isomer, unassigned) [33, Enantiomer 1] | < 1 µM | 
8 | Cc1sc2c(c1Br)C1CNCCC1C2 (single isomer, unassigned) [33, Enantiomer 2] | < 10 µM | 
9 | CC1c2sccc2C2CNCC12 (single isomer, unassigned) [34, Enantiomer 1] | < 10 µM | 
10 | CC1c2cc(Br)sc2C2CNCC12 (single isomer, unassigned) [36, Enantiomer 1] | < 1 µM | 
11 | CC1c2cc(Br)sc2C2CNCC12 (single isomer, unassigned) [36, Enantiomer 2] | < 10 µM | 
12 | Brc1csc2c1CC1CNCC21 (single isomer, unassigned) [37, Enantiomer 1] | < 1 µM | 
13 | Brc1cc2c(s1)C1CNCC1C2 (single isomer, unassigned) [38, Enantiomer 1] | < 0.1 µM | 
14 | FC(F)(F)c1sc2c(c1Br)CC1CNCC21 (single isomer, unassigned) [39, Enantiomer 2] | < 0.1 µM | 
15 | Cc1c(C(F)(F)F)sc2c1CC1CNCC21 (single isomer, unassigned) [40, Enantiomer 2] | < 0.1 µM | 
16 | COc1c(C(F)(F)F)sc2c1CC1CNCC21 (single isomer, unassigned) [41, Enantiomer 2] | < 0.1 µM | 
17 | COc1c(Cl)sc2c1CC1CNCC21 (single isomer, unassigned) [42, Enantiomer 2] | < 10 µM | 
18 | CC(C)(C)C(=O)c1sc2c(c1Br)CC1CNCC21 (single isomer, unassigned) [43, Enantiomer 2] | < 1 µM | 
19 | c1ccc2c3c(sc2c1)C1CNCC1C3 (single isomer, unassigned) [45, Enantiomer 2] | < 1 µM | 
20 | Cc1c(Br)sc2c1C1CNCC1CC2 (single isomer, unassigned) [46, Enantiomer 2] | < 1 µM | 
21 | CCOC(=O)c1c(N)sc2c1CC1CNCC21 (stereo not drawn) [Example 1, 5-Amino-1,2,3,3a,7,7a-hexahydro-4-thia-2-aza-cyclopenta[α]pentalene-6-carboxylic acid ethyl ester] | < 0.1 µM | 
22 | CCOC(=O)c1c(Br)sc2c1CC1CNCC21 (stereo not drawn) [Example 2, 5-Bromo-1,2,3,3a,7,7a-hexahydro-4-thia-2-aza-cyclopenta[α]pentalene-6-carboxylic acid ethyl ester] | < 0.1 µM | 

Row | SMILES | EC50 [1] | EC50 (read-out: 5-HT2c EC50 (hVSV), HEK 293 EBNA cells expressing human 5HT2c receptor, ligand-induced calcium release)
23 | CCOC(=O)c1csc2c1CC1CNCC21 (stereo not drawn) [Example 3, 1,2,3,3a,7,7a-Hexahydro-4-thia-2-aza-cyclopenta[α]pentalene-6-carboxylic acid ethyl ester] | < 0.1 µM | 
24 | CCOC(=O)c1c(Cl)sc2c1CC1CNCC21 (stereo not drawn) [Example 4, 5-Chloro-1,2,3,3a,7,7a-hexahydro-4-thia-2-aza-cyclopenta[α]pentalene-6-carboxylic acid ethyl ester] | < 0.1 µM | 
25 | Nc1sc2c(c1C(=O)c1cccc(C(F)(F)F)c1)CC1CNCC21 (stereo not drawn) [Example 5, (5-Amino-1,2,3,3a,7,7a-hexahydro-4-thia-2-aza cyclopenta[α]-pentalen-6-yl)-(3-trifluoromethyl-phenyl)-methanone] | < 10 µM | 
26 | Cc1ccc(C(=O)c2c(N)sc3c2CC2CNCC32)cc1 (stereo not drawn) [Example 6, (5-Amino-1,2,3,3a,7,7a-hexahydro-4-thia-2-aza-cyclopenta[α]-pentalen-6-yl)-p-tolyl-methanone] | < 1 µM | 
27 | Nc1sc2c(c1C(=O)c1ccc(Cl)cc1)CC1CNCC21 (stereo not drawn) [Example 7, (5-Amino-1,2,3,3a,7,7a-hexahydro-4-thia-2-aza-cyclopenta[α]-pentalen-6-yl)-(4-chloro-phenyl)-methanone] | < 10 µM | 
28 | COC(=O)c1cc2c(s1)C1CNCC1C2 (stereo not drawn) [Example 8, 1,2,3,3a,7,7a-Hexahydro-4-thia-2-aza-cyclopenta[α]pentalene-5-carboxylic acid methyl ester] | < 10 µM | 
29 | c1cc2c(s1)C1CNCC1C2 (stereo not drawn) [Example 9, 1,2,3,3a,7,7a-Hexahydro-4-thia-2-aza-cyclopenta[α]pentalene] | > 10 µM | 
30 | N#Cc1c(Cl)sc2c1C1CNCC1C2 (stereo not drawn) [Example 10, 2-Chloro-3b,4,5,6,6a,7-hexahydro-1-thia-5-aza-cyclopenta[α]pentalene-3-carbonitrile] | < 10 µM | 
31 | N#Cc1c(Br)sc2c1C1CNCC1C2 (stereo not drawn) [Example 11, 2-Bromo-3b,4,5,6,6a,7-hexahydro-1-thia-5-aza-cyclopenta[α]pentalene-3-carbonitrile] | < 10 µM | 
32 | N#Cc1c(Cl)sc2c1CC1CNCC21 (stereo not drawn) [Example 12, 5-Chloro-1,2,3,3a,7,7a-hexahydro-4-thia-2-aza-cyclopenta[α]pentalene-6-carbonitrile] | < 0.1 µM | 
33 | N#Cc1c(Br)sc2c1CC1CNCC21 (centres unmarked) [Example 13, 5-Bromo-1,2,3,3a,7,7a-hexahydro-4-thia-2-aza-cyclopenta[ ]pentalene-6-carbonitrile] | < 0.1 µM | 
34 | N#Cc1csc2c1CC1CNCC21 (stereo not drawn) [Example 14, 1,2,3,3a,7,7a-Hexahydro-4-thia-2-aza-cyclopenta[α]pentalene-6-carbonitrile] | < 1 µM | 
35 | Cc1sc2c(c1Cl)CC1CNCC21 (stereo not drawn) [Example 15, 6-Chloro-5-methyl-1,2,3,3a,7,7a-hexahydro-4-thia-2-aza-cyclopenta[α]pentalene] | < 0.1 µM | 
36 | Cc1c(Cl)sc2c1CC1CNCC21 (stereo not drawn) [Example 17, 5-Chloro-6-methyl-1,2,3,3a,7,7a-hexahydro-4-thia-2-aza-cyclopenta[α]pentalene] | < 0.1 µM | 
37 | Brc1sc2c(c1Br)CC1CNCC21 (stereo not drawn) [Example 19, 5,6-Dibromo-1,2,3,3a,7,7a-hexahydro-4-thia-2-aza-cyclopenta[α]pentalene] | < 1 µM | 
38 | COc1csc2c1CC1CNCC21 (stereo not drawn) [Example 20, 6-Methoxy-1,2,3,3a,7,7a-hexahydro-4-thia-2-aza-cyclopenta[α]pentalene] | < 1 µM | 
39 | Brc1cc2c(s1)CC1CNCC21 (stereo not drawn) [Example 21, 2-Bromo-3b,4,5,6,6a,7-hexahydro-1-thia-5-aza-cyclopenta[α]pentalene] | < 0.1 µM | 
40 | Brc1sc2c(c1Br)C1CNCC1C2 (stereo not drawn) [Example 22, 2,3-Dibromo-3b,4,5,6,6a,7-hexahydro-1-thia-5-aza-cyclopenta[α]pentalene] | < 0.1 µM | 
41 | FC(F)(F)c1csc2c1C1CNCC1C2 (stereo not drawn) [Example 23, 3-Trifluoromethyl-3b,4,5,6,6a,7-hexahydro-1-thia-5-aza-cyclopenta[α]pentalene] | < 1 µM | 
42 | CC1c2sc(Cl)cc2C2CNCC12 (stereo not drawn) [Example 24, 2-Chloro-7-methyl-3b,4,5,6,6a,7-hexahydro-1-thia-5-aza-cyclopenta[α]pentalene] | < 1 µM | 
43 | CC1c2sc(I)cc2C2CNCC12 (stereo not drawn) [Example 25, 2-Iodo-7-methyl-3b,4,5,6,6a,7-hexahydro-1-thia-5-aza-cyclopenta[α]pentalene] | < 1 µM | 
44 | Brc1cc2c(s1)C1CCNCC1C2 (stereo not drawn) [Example 31, 2-Bromo-4,5,6,7,7a,8-hexahydro-3bH-3-thia-6-aza-cyclopenta[α]indene] | < 1 µM | 
